We go through three molecules from patent US8563547B2, “(6,7-dihydro-2-nitro-5H-imidazol[2,1-b][1,3]oxazin-6-yl) amide compounds, preparation methods and uses thereof” (Shanghai Sun-Sail Pharmaceutical Science & Technology Co., …, priority 2010, dated 2013).

≈ marks a conversion by molar mass, not a printed value.

Assay in all cases: microbe, parasite or virus in culture
Common to all, as to format: cell-based, Mycobacterium tuberculosis

Assay [1] concerns strain 246: resistant to streptomycin (WHO QC bacterium). To be noted: for MIC: Mycobacterium tuberculosis, read-out: drug-resistance bacteria MIC, 246 (S mono-resistance); for MIC value, times as that of PA-824, streptomycin resistance 246: strain 246, relative to PA-824.
Assay [2] concerns strain 242: resistant to isoniazide (WHO QC bacterium). The following applies: for MIC: Mycobacterium tuberculosis, read-out: drug-resistance bacteria MIC, 242 (H mono-resistance); for MIC value, times as that of PA-824, isoniazide resistance 242: strain 242, relative to PA-824.
In assay [3] the test system is strain 261: resistant to rifampicin (WHO QC bacterium). The following applies: for MIC: Mycobacterium tuberculosis, read-out: drug-resistance bacteria MIC, 261 (R mono-resistance); for MIC value, times as that of PA-824, rifampicin resistance 261: strain 261, relative to PA-824.

Take `O=C(CN1CCC(Oc2ccc(OC(F)(F)F)cc2)CC1)N[C@@H]1COc2nc([N+](=O)[O-])cn2C1` [Compound 1, (S)-N-(6,7-dihydro-2-nitro-5H-imidazo [2,1-b][1,3]oxazin-6-yl)-2-(4-(4-(trifluoromethoxy)phenoxy)piperid-1-yl)acetamide]: in assay [1], the MIC is under 0.0312 µg/mL and the “MIC value, times as that of PA-824, streptomycin resistance 246” value was 16 times. Besides, in assay [2], the MIC amounted to 0.5 µg/mL (≈ 1.03 µM) and the “MIC value, times as that of PA-824, isoniazide resistance 242” value is reported as 2 times. In addition, in assay [3], the MIC was under 0.0312 µg/mL and the “MIC value, times as that of PA-824, rifampicin resistance 261” value is given as 16 times.
Regarding `O=C(CCN1CCC(Oc2ccc(OC(F)(F)F)cc2)CC1)N[C@@H]1COc2nc([N+](=O)[O-])cn2C1` [Compound 22, (S)-N-(6,7-dihydro-2-nitro-5H-imidazo [2,1-b][1,3]oxazin-6-yl)-3-(4-(4-(trifluoromethoxy)phenoxy)piperid-1-yl)propanamide], in assay [1], the MIC turned out to be 0.0625 µg/mL (≈ 0.125 µM) and the “MIC value, times as that of PA-824, streptomycin resistance 246” value came to 8 times. For the same molecule, in assay [2], the MIC is 0.5 µg/mL (≈ 1 µM) and the “MIC value, times as that of PA-824, isoniazide resistance 242” value was 2 times. Moreover, in assay [3], the MIC was under 0.0312 µg/mL and the “MIC value, times as that of PA-824, rifampicin resistance 261” value is reported as 16 times.
Turning to `O=[N+]([O-])c1cn2c(n1)OC[C@@H](OCc1ccc(OC(F)(F)F)cc1)C2` [PA-824, reference compound], the MIC stood at 0.5 µg/mL (≈ 1.39 µM) in assay [1], 1 µg/mL (≈ 2.78 µM) in assay [2] and 0.5 µg/mL (≈ 1.39 µM) in assay [3].
